# Experimental data reported in ChEMBL document CHEMBL1201862, “PubChem BioAssay data set” (2004).
#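 A five-concentration, 48-hour dose response in 96-well plates underlies each endpoint, interpolated linearly between surrounding concentrations. At the GI50, growth is halved.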 The source made the active and inactive calls. Rule as the data show it: active = GI50 up to about 1.1 µM and inactive = higher.
# Columns and labels:
# Assay in all cases: inhibition of tumour cell growth, NCI panel, 48 h
# A498 = system: A498
# NCI/ADR-RES = system: NCI/ADR-RES
# SNB-75 = system: SNB-75
# SF-295 = system: SF-295
# BT-549 = system: BT-549
# T47D = system: T47D
# ACHN = system: ACHN
# MCF7 = system: MCF7
# SF-539 = system: SF-539
# UACC-62 = system: UACC-62
# CAKI-1 = system: CAKI-1
# HCT-116 = system: HCT-116
# RPMI-8226 = system: RPMI-8226
# MDA-MB-231 = system: MDA-MB-231
# HOP-62 = system: HOP-62
# NCI-H226 = system: NCI-H226
# MDA-MB-435 = system: MDA-MB-435
# 786-0 = system: 786-0
# NCI-H23 = system: NCI-H23
# K562 = system: K562
# SN12C = system: SN12C
# OVCAR-8 = system: OVCAR-8
# MDA-N = system: MDA-N
# COLO 205 = system: COLO 205
# DU-145 = system: DU-145
# SW-620 = system: SW-620
# U-251 = system: U-251
# Malme-3M = system: Malme-3M
# NCI-H460 = system: NCI-H460
# EKVX = system: EKVX
# SNB-19 = system: SNB-19
# RXF 393 = system: RXF 393
# HCT-15 = system: HCT-15
# MOLT-4 = system: MOLT-4
# A549 = system: A549
# OVCAR-3 = system: OVCAR-3
# PC-3 = system: PC-3
# SK-MEL-5 = system: SK-MEL-5
# HL-60 = system: HL-60
# OVCAR-5 = system: OVCAR-5
# SF-268 = system: SF-268
# LOX IMVI = system: LOX IMVI
# HCC 2998 = system: HCC 2998
# SK-OV-3 = system: SK-OV-3
# HT-29 = system: HT-29
# SK-MEL-2 = system: SK-MEL-2
# TK-10 = system: TK-10
# M14 = system: M14
# KM12 = system: KM12
# UACC-257 = system: UACC-257
# IGROV-1 = system: IGROV-1
# NCI-H522 = system: NCI-H522
# Hs-578T = system: Hs-578T
# CCRF-CEM = system: CCRF-CEM
# OVCAR-4 = system: OVCAR-4
# SK-MEL-28 = system: SK-MEL-28
# UO-31 = system: UO-31
# HOP-92 = system: HOP-92
smiles,measurement,setting,value
CCCCC(Sc1cc(Cl)c(C)cc1S(=O)(=O)Nc1nc(N)n[nH]1)C(=O)OC (stereo not drawn),GI50,A498,> 10 µM (inactive)
same,GI50,NCI/ADR-RES,> 10 µM (inactive)
same,GI50,SNB-75,> 10 µM (inactive)
same,GI50,SF-295,> 10 µM (inactive)
same,GI50,BT-549,> 10 µM (inactive)
same,GI50,T47D,> 10 µM (inactive)
same,GI50,ACHN,> 10 µM (inactive)
same,GI50,MCF7,> 10 µM (inactive)
same,GI50,SF-539,> 10 µM (inactive)
same,GI50,UACC-62,> 10 µM (inactive)
same,GI50,CAKI-1,> 10 µM (inactive)
same,GI50,HCT-116,> 10 µM (inactive)
same,GI50,RPMI-8226,> 10 µM (inactive)
same,GI50,MDA-MB-231,> 10 µM (inactive)
same,GI50,HOP-62,> 10 µM (inactive)
same,GI50,NCI-H226,> 10 µM (inactive)
same,GI50,MDA-MB-435,> 10 µM (inactive)
same,GI50,786-0,> 10 µM (inactive)
same,GI50,NCI-H23,> 10 µM (inactive)
same,GI50,K562,> 10 µM (inactive)
same,GI50,SN12C,> 10 µM (inactive)
same,GI50,OVCAR-8,> 10 µM (inactive)
same,GI50,MDA-N,> 10 µM (inactive)
same,GI50,COLO 205,> 10 µM (inactive)
same,GI50,DU-145,> 10 µM (inactive)
same,GI50,SW-620,> 10 µM (inactive)
same,GI50,U-251,> 10 µM (inactive)
same,GI50,Malme-3M,> 10 µM (inactive)
same,GI50,NCI-H460,> 10 µM (inactive)
same,GI50,EKVX,> 10 µM (inactive)
same,GI50,SNB-19,> 10 µM (inactive)
same,GI50,RXF 393,> 10 µM (inactive)
same,GI50,HCT-15,> 10 µM
same,GI50,MOLT-4,> 10 µM (inactive)
same,GI50,A549,> 10 µM (inactive)
same,GI50,OVCAR-3,> 10 µM (inactive)
same,GI50,PC-3,> 10 µM (inactive)
same,GI50,SK-MEL-5,> 10 µM (inactive)
same,GI50,HL-60,> 10 µM (inactive)
same,GI50,OVCAR-5,> 10 µM (inactive)
same,GI50,SF-268,> 10 µM (inactive)
same,GI50,LOX IMVI,> 10 µM (inactive)
same,GI50,HCC 2998,> 10 µM (inactive)
same,GI50,SK-OV-3,> 10 µM (inactive)
same,GI50,HT-29,> 10 µM (inactive)
same,GI50,SK-MEL-2,> 10 µM (inactive)
same,GI50,TK-10,> 10 µM (inactive)
same,GI50,M14,> 10 µM (inactive)
same,GI50,KM12,> 10 µM (inactive)
same,GI50,UACC-257,> 10 µM (inactive)
same,GI50,IGROV-1,> 10 µM (inactive)
same,GI50,NCI-H522,> 10 µM (inactive)
same,GI50,Hs-578T,> 10 µM (inactive)
same,GI50,CCRF-CEM,> 10 µM (inactive)
same,GI50,OVCAR-4,> 10 µM (inactive)
same,GI50,SK-MEL-28,> 10 µM (inactive)
COC(=O)C(Cc1c(-c2[nH]c3ccccc3c2CC(NC(C)=O)C(=O)OC)[nH]c2ccccc12)NC(C)=O (stereo not drawn),GI50,A498,> 100 µM (inactive)
same,GI50,NCI/ADR-RES,> 100 µM (inactive)
same,GI50,SNB-75,92 µM (inactive)
same,GI50,SF-295,> 100 µM (inactive)
same,GI50,BT-549,> 100 µM (inactive)
same,GI50,T47D,> 100 µM (inactive)
same,GI50,ACHN,> 100 µM (inactive)
same,GI50,SF-539,> 100 µM (inactive)
same,GI50,UACC-62,> 100 µM (inactive)
same,GI50,CAKI-1,> 100 µM (inactive)
same,GI50,HCT-116,> 100 µM (inactive)
same,GI50,RPMI-8226,> 100 µM (inactive)
same,GI50,MDA-MB-231,> 100 µM (inactive)
same,GI50,HOP-62,> 100 µM (inactive)
same,GI50,NCI-H226,> 100 µM (inactive)
same,GI50,MDA-MB-435,> 100 µM (inactive)
same,GI50,786-0,> 100 µM (inactive)
same,GI50,UO-31,> 100 µM (inactive)
same,GI50,NCI-H23,> 100 µM (inactive)
same,GI50,K562,> 100 µM (inactive)
same,GI50,SN12C,> 100 µM (inactive)
same,GI50,HOP-92,> 100 µM (inactive)
same,GI50,OVCAR-8,> 100 µM (inactive)
same,GI50,MDA-N,> 100 µM (inactive)
same,GI50,COLO 205,> 100 µM (inactive)
same,GI50,DU-145,> 100 µM (inactive)
same,GI50,SW-620,> 100 µM (inactive)
same,GI50,U-251,> 100 µM (inactive)
same,GI50,Malme-3M,> 100 µM (inactive)
same,GI50,NCI-H460,> 100 µM (inactive)
same,GI50,EKVX,> 100 µM (inactive)
same,GI50,SNB-19,> 100 µM (inactive)
same,GI50,RXF 393,> 100 µM (inactive)
same,GI50,HCT-15,> 100 µM
same,GI50,MOLT-4,> 100 µM (inactive)
same,GI50,A549,> 100 µM (inactive)
same,GI50,OVCAR-3,> 100 µM (inactive)
same,GI50,PC-3,> 100 µM (inactive)
same,GI50,SK-MEL-5,> 100 µM (inactive)
same,GI50,HL-60,> 100 µM (inactive)
same,GI50,OVCAR-5,> 100 µM (inactive)
same,GI50,SF-268,> 100 µM (inactive)
same,GI50,LOX IMVI,> 100 µM (inactive)
same,GI50,SK-OV-3,> 100 µM (inactive)
same,GI50,HT-29,> 100 µM (inactive)
same,GI50,SK-MEL-2,> 100 µM (inactive)
same,GI50,TK-10,> 100 µM (inactive)
same,GI50,M14,> 100 µM (inactive)
same,GI50,KM12,> 100 µM (inactive)
same,GI50,UACC-257,> 100 µM (inactive)
same,GI50,IGROV-1,> 100 µM (inactive)
same,GI50,NCI-H522,16.3 µM (inactive)
same,GI50,Hs-578T,> 100 µM (inactive)
same,GI50,CCRF-CEM,> 100 µM (inactive)
same,GI50,SK-MEL-28,> 100 µM (inactive)
O=c1[nH]c2ccccc2c(=O)c2cc3ccccc3cc12,GI50,A498,17.2 µM (inactive)
same,GI50,NCI/ADR-RES,26.6 µM (inactive)
same,GI50,SNB-75,3.92 µM (inactive)
same,GI50,SF-295,18.6 µM (inactive)
same,GI50,BT-549,15.7 µM (inactive)
same,GI50,T47D,> 100 µM (inactive)
same,GI50,ACHN,33.7 µM (inactive)
same,GI50,MCF7,> 100 µM (inactive)
same,GI50,SF-539,20.9 µM (inactive)
same,GI50,UACC-62,41.6 µM (inactive)
same,GI50,CAKI-1,16.2 µM (inactive)
same,GI50,HCT-116,5.78 µM (inactive)
same,GI50,MDA-MB-231,6.35 µM (inactive)
same,GI50,HOP-62,10.4 µM (inactive)
same,GI50,NCI-H226,16.7 µM (inactive)
same,GI50,MDA-MB-435,> 100 µM (inactive)
same,GI50,786-0,6.58 µM (inactive)
same,GI50,UO-31,35.3 µM (inactive)
same,GI50,NCI-H23,19.1 µM (inactive)
same,GI50,K562,> 100 µM (inactive)
same,GI50,SN12C,71.4 µM (inactive)
same,GI50,HOP-92,3.9 µM (inactive)
same,GI50,OVCAR-8,10 µM (inactive)
same,GI50,MDA-N,> 100 µM (inactive)
same,GI50,COLO 205,88.7 µM (inactive)
same,GI50,DU-145,26.9 µM (inactive)
same,GI50,SW-620,65.5 µM (inactive)
same,GI50,U-251,6.28 µM (inactive)
same,GI50,Malme-3M,45.6 µM (inactive)
same,GI50,NCI-H460,16.4 µM (inactive)
same,GI50,EKVX,> 100 µM (inactive)
same,GI50,SNB-19,12.1 µM (inactive)
same,GI50,RXF 393,18 µM (inactive)
same,GI50,HCT-15,74.8 µM
same,GI50,MOLT-4,92.9 µM (inactive)
same,GI50,A549,31.3 µM (inactive)
same,GI50,OVCAR-3,22.7 µM (inactive)
same,GI50,PC-3,> 100 µM (inactive)
same,GI50,SK-MEL-5,49.2 µM (inactive)
same,GI50,HL-60,40 µM (inactive)
same,GI50,OVCAR-5,> 100 µM (inactive)
same,GI50,SF-268,3.42 µM (inactive)
same,GI50,LOX IMVI,27.9 µM (inactive)
same,GI50,HCC 2998,> 100 µM (inactive)
same,GI50,SK-OV-3,11.8 µM (inactive)
same,GI50,HT-29,> 100 µM (inactive)
same,GI50,SK-MEL-2,22.5 µM (inactive)
same,GI50,TK-10,15.7 µM (inactive)
same,GI50,M14,45.3 µM (inactive)
same,GI50,KM12,97.3 µM (inactive)
same,GI50,UACC-257,> 100 µM (inactive)
same,GI50,IGROV-1,48.2 µM (inactive)
same,GI50,NCI-H522,10.6 µM (inactive)
same,GI50,Hs-578T,8.81 µM (inactive)
same,GI50,CCRF-CEM,51.5 µM (inactive)
same,GI50,OVCAR-4,23.4 µM (inactive)
same,GI50,SK-MEL-28,67 µM (inactive)
